Experiments:
[1] = system: TNF-α-ARE luciferase reporter in MDA-MB-231 cells; experiment: Post-transcriptional ARE luciferase reporter assay (kinase inhibitor library screen); format: cell-based
Description: Reporters were designed to be driven by the ribosomal protein subunit 30 (RPS30) promoter. The promoter was amplified using PCR with primers specific to the flanking region of the RPS30 promoter sequence. The gene structure of RPS30 was obtained from the Ribosomal Protein Database (http://ribosome.med.miyazaki-u.ac.jp). The forward and reverse primers included the restriction sites, EcoR V and SalI sites. Amplified DNA fragments were then resolved in 1.2%-1.5% agarose gel and the amplicon bands were excised, purified and cloned into the promoterless plasmid. TNF-α 3′-UTR and TNF-α ARE were used to study the role of AU-rich elements in the action of PKs inhibitors. The AU-rich sequence that comprised 250 bases from TNF-α 3′UTR (1200-1450 bp, NM_00059) was amplified by PCR using the forward primer 5′-[…]-3′ (SEQ ID NO:1) and the reverse primer 5′-[…]-3′ (SEQ ID NO:2). The TNF-α-ARE sequence was made by annealing two synthetic complementary oligonucleotides of 70 bases that correspond to TNF-α ARE. The control reporter was constructed to have the basic structure of post-transcriptional reporter except 3′UTR which lack the AU-rich element sequence like this of bovine growth hormone. Any ARE reiterations or variations can be used, with minimal sequence is AUUUA, preferably, WW(AUUUA)WW, where W=A or U. They can be also repeated as an overall, e.g., AUUUAUUA, anywhere from 0 to 10 repeats as example.
Selleckchem Kinase Inhibitor Library that includes a selection of 378 pharmacologically active inhibitors of a number of protein kinases was purchased from Selleckchem. (Houston, Tex., USA). This library is a collection of 378 kinase inhibitors some of which have been approved by the FDA. Each compound is provided as a pre-dissolved 10 mM dimethyl sulfoxide (DMSO) solution as a 96 well format tube (100 μL). The compounds were diluted by OPTI-MEM (Thermo Fisher Scientific, Waltham, Mass., USA) to a final concentration of 5 μM.
Post-transcriptional and control reporter constructs were transfected to MDA-MB-231 cells separately that were seeded in 96-well microplates at a density of 4×10^4 cells/well and incubated overnight. Using lipofectamine 2000 protocol (Invitrogen, Carlsbad, Calif., USA), the cells were transfected with 10 ng of either RPS30-luciferase-control 3′UTR or RPS30-luciferase-ARE 3′UTR reporter plasmids. After 24 h, the cells were treated with each member of protein kinase inhibitors kit for 24 h. Then, luciferase reaction was performed as prescribed by manufacture's protocol (Nano-Glo Luciferase, Promega, Madison, Wis., USA)/well. After 15 minutes, the reporters' activities were measured through the measurement of the chemiluminescence (FIG. 8) after treatment using a Zenith 3100 (Anthos Labtec, Eugendorf, Austria).
Data are presented as means±standard error of the mean (SEM). Two-sample Student's t-test was used to determine the differences between two data sets. One-way analysis of variance (ANOVA) was used to compare three or more data columns. Two-way analysis of variance was used to analyze two groups of data, each having two data columns. Analysis was performed using GraphPad Prism version 6.00 for Windows, (GraphPad Software, La Jolla Calif., USA). For high throughput screening (HTS) hit selection (protein kinase inhibitors), strictly standardized mean difference (SSMD) test was used. This statistical test measures the size of effect of each member in a group relative to the other members. It is the mean of each member divided by the standard deviation of the difference between two random values from different groups. Based on the value of SSMD, the effect of each member of the library was classified as strong (β≥5), moderate (1≤β<5), and weak (β<1). In this study, only drug with SSMD score more than or equal to 5 or less than or equal to −5, i.e. strong β, where selected in the primary screening. […]

MDA-MB-231 cells = experiment: Proliferation assay (RTCA); format: cell-based; conditions: MDA-MB-231, 300 nM, vs DMSO
Procedure: MDA-MB-231 cells were seeded in 6-well cell culture plates and incubated overnight. The cells were treated with the selected protein kinase inhibitors and incubated overnight. Then they were reseeded onto the invasion chamber in serum-free media at a density of 2×10^4 cells per well using 16-well CIM-Plate in Real-Time Cell Analysis (RTCA) Dual Plate (DP) Analyzer (ACEA Bioscinece, California, USA) that was loaded inside the incubator. The lower chambers to which cells will migrate were prepared to contain chemoattractant consisted of 10% FBS. For invasion assays, Matrigel (BioCoat, BD Biosciences, MA) which resembles the complex extracellular environment found in many tissues was prepared and used to coat the upper chamber of CIM plates. Invasion and migration were monitored continuously over 72-hour period using RTCA Software (ACEA Bioscinece, California, USA). The RTCA Instrument automatically monitors the cells every 15 minutes for 100 repetitions. For proliferation assays, the same principle was applied using a single chamber containing complete DMEM media (FIG. 10).
Based on the dose-response curve, 330 nM was selected to be used as a standard dose for the experiments. In the invasion assay, MDA-MB-231 cells were treated with volasertib or DMSO for 24 hr, then invasion was monitored for 30 hr.

CC[C@@H]1C(=O)N(C)c2cnc(Nc3ccc(C(=O)N[C@H]4CC[C@H](N5CCN(CC6CC6)CC5)CC4)cc3OC)nc2N1C(C)C [volasertib]
reduction of TNF-ARE luciferase reporter activity ([1]; primary screening, 5 μM): 40% | reduction in percent reporter activity in the secondary screening compared to the control reporter ([1]; secondary screening, ARE vs non-ARE control reporter): same reduction in percent reporter activity | proliferation (MDA-MB-231 cells): significantly reduced

— patent publication US20210255168A1, “A METHOD OF PRECISION CANCER THERAPY” (KING FAISAL SPECIALIST HOSPITAL & RESEARCH CENTRE, priority 2018, published 2021)
